Experimental data taken from publication PMC12427763 (2025).

How the values were obtained:
[1] = tested on: 5'-biotin c-myb IM (DNA, i motif) TCCTCCTCCTCCTTCTCCTCCTCCTCCGTGACCTCCTCCTCC; experiment: SPR; details: K+ 100 mM; 20 mM MES pH 5.5, 5% DMSO
[2] = tested on: 5'-biotin c-myb G4 (DNA, G4) GGAGGAGGAGGTCACGGAGGAGGAGGAGAAGGAGGAGGAGGA; experiment: SPR; details: K+ 100 mM; 50 mM Tris-HCl pH 7.4, 5% DMSO
[3] = tested on: c-myb G4 (5'-FAM) (DNA, G4) GGAGGAGGAGGTCACGGAGGAGGAGGAGAAGGAGGAGGAGGA; experiment: MST; details: K+ 100 mM; 50 mM Tris-HCl pH 7.4
[4] = tested on: c-myb IM (5'-FAM) (DNA, i motif) TCCTCCTCCTCCTTCTCCTCCTCCTCCGTGACCTCCTCCTCC; experiment: MST; details: K+ 100 mM, 20 mM MES pH 5.5
[5] = tested on: c-Jun G4 (5'-FAM) (DNA, G4) AAGGGGGGAGGGGGAGGGGGTT; experiment: MST; details: K+ 100 mM; 50 mM Tris-HCl pH 7.4
[6] = tested on: c-myb G4 (DNA, G4) GGAGGAGGAGGTCACGGAGGAGGAGGAGAAGGAGGAGGAGGA; experiment: TO displacement, fluorescence; details: K+ 100 mM; 50 mM Tris-HCl pH 7.4; tracer thiazole orange 2 μM
[7] = tested on: c-Jun IM (5'-FAM) (DNA, i motif) TAACCCCCTCCCCCTCCCCCCTTTAAT; experiment: MST; details: K+ 100 mM; 20 mM MES pH 5.5
[8] = tested on: Rb IM (5'-FAM) (DNA, i motif) GCCGCCCAAAACCCCCCG; experiment: MST; details: K+ 100 mM; 20 mM MES pH 5.5
[9] = tested on: c-myb IM (DNA, i motif) TCCTCCTCCTCCTTCTCCTCCTCCTCCGTGACCTCCTCCTCC; experiment: TO displacement, fluorescence; details: K+ 100 mM plus potassium phosphate; BPES pH 5.5, 1 mM EDTA; tracer thiazole orange 2 μM
[10] = tested on: Ret IM (DNA, i motif) CCCCGCCCCGCCCCGCCCCTA; experiment: SPR; details: K+ 100 mM; 20 mM MES pH 5.5, 5% DMSO
[11] = tested on: Kras IM (5'-FAM) (DNA, i motif) CCTCCCCCTCTTCCCTCTTCCCACACCGCCCT; experiment: MST; details: K+ 100 mM; 20 mM MES pH 5.5
[12] = tested on: Kras G4 (DNA, G4) AGGGCGGTGTGGGAAGAGGGAAGAGGGGGAGG; experiment: SPR; details: K+ 100 mM; 50 mM Tris-HCl pH 7.4, 5% DMSO
[13] = tested on: Bcl-2 IM (DNA, i motif) CAGCCCCGCTCCCGCCCCCTTCCTCCCGCGCCCGCCCCT; experiment: SPR; details: K+ 100 mM; 20 mM MES pH 5.5, 5% DMSO
[14] = tested on: Bcl-2 G4 (DNA, G4) GGGCGGGCGCGGGAGGAAGGGGGCGGG; experiment: SPR; details: K+ 100 mM; 50 mM Tris-HCl pH 7.4, 5% DMSO
[15] = tested on: c-Jun IM (DNA, i motif) TAACCCCCTCCCCCTCCCCCCTTTAAT; experiment: SPR; details: K+ 100 mM; 20 mM MES pH 5.5, 5% DMSO
[16] = tested on: Hras G4 (DNA, G4) TTGAGGGTGGGTAGGGTGGGTAAA; experiment: SPR; details: K+ 100 mM; 50 mM Tris-HCl pH 7.4, 5% DMSO
[17] = tested on: Rb IM (DNA, i motif) GCCGCCCAAAACCCCCCG; experiment: SPR; details: K+ 100 mM; 20 mM MES pH 5.5, 5% DMSO
[18] = tested on: Kras G4 (5'-FAM) (DNA, G4) AGGGCGGTGTGGGAAGAGGGAAGAGGGGGAGG; experiment: MST; details: K+ 100 mM; 50 mM Tris-HCl pH 7.4
[19] = tested on: c-Jun G4 (DNA, G4) AAGGGGGGAGGGGGAGGGGGTT; experiment: SPR; details: K+ 100 mM; 50 mM Tris-HCl pH 7.4, 5% DMSO
[20] = tested on: HIF-1α IM (5'-FAM) (DNA, i motif) GCCCGAGCGCGCCTCCGCCCTTGCCCGCCCCCTG; experiment: MST; details: K+ 100 mM; 20 mM MES pH 5.5
[21] = tested on: Ret IM (5'-FAM) (DNA, i motif) CCCCGCCCCGCCCCGCCCCTA; experiment: MST; details: K+ 100 mM; 20 mM MES pH 5.5

Work on `O=C1c2cccc3c(-n4cc(-c5ccc6c(c5)c5ccccc5n6CCN5CCCC5)nn4)ccc(c23)C(=O)N1CCN1CCCC1` yielded a KD [1] of 3.34 µM, a KD [2] of 5.15 µM and a KD [3] of 8.53 ± 3.22 µM. The KD [4] was 2.11 ± 0.71 µM.
Work on `O=C1c2cccc3cc(-c4ccc5c(c4)c4cc(-c6cn(CCN7CCCC7)nn6)ccc4n5CCN4CCCC4)cc(c23)C(=O)N1CCN1CCCC1` yielded a KD [5] greater than 50 µM, a KD [1] of 0.58 µM and a DC50 [6] of 1.0 µM. The KD [7] was 34.42 µM, the KD [8] was 20.93 µM and the DC50 [9] was 0.8 µM. For the same compound, the KD [10] was 7.71 µM, the KD [2] was 1.10 µM and the KD [11] was 20.59 µM. For the same compound, the KD [12] was 27.50 µM, the KD [13] was 18.50 µM and the KD [14] was 23.60 µM. For the same compound, the KD [15] was 18.70 µM, the KD [16] was 29.10 µM and the KD [17] was 7.70 µM. It also gave a KD [18] of 19.90 µM, a KD [19] of 32.90 µM and a KD [20] of 14.19 µM. The KD [3] was 1.43 ± 0.64 µM, the KD [4] was 1.04 ± 0.40 µM and the KD [21] was 18.00 µM.
Work on `O=C1c2cccc3cc(-c4ccc5c(c4)c4ccccc4n5CCN4CCCC4)cc(c23)C(=O)N1CCN1CCCC1` yielded a KD [1] of 12.90 µM, a KD [2] of 3.03 µM and a KD [3] of 1.11 ± 0.52 µM. The KD ([4]; supplement prints 10.39 ± 2.67) was 10.06 ± 2.67 µM.
